Results published in patent publication US10407425B2, “Indazole inhibitors of the Wnt signal pathway and therapeutic uses thereof” (Samumed, LLC, priority 2012, dated 2019).

Tested on: Wnt activity
Assay: Wnt activity reporter assay (SP5 promoter firefly luciferase in SW480 cells)
Format: cell-based
Details: Homo sapiens; SW480 cells bearing SP5 promoter luciferase reporter; 24 h after compound addition; read-out: Wnt inhibition
Description: The above synthesized compounds were screened using the assay procedure for Wnt activity described below.
Reporter cell lines can be generated by stably transducing cells of cancer cell lines (e.g., colon cancer) with a lentiviral construct that include a wnt-responsive promoter driving expression of the firefly luciferase gene.
Lentiviral constructs can be made in which the SP5 promoter, a promoter having eight TCF/LEF binding sites derived from the SP5 promoter, is linked upstream of the firefly luciferase gene. The lentiviral constructs can also include a hygromycin resistance gene as a selectable marker. The SP5 promoter construct can be used to transduce SW480 cells, a colon cancer cell line having a mutated APC gene that generates a truncated APC protein, leading to de-regulated accumulation of β-catenin.
Cultured SW480 cells bearing a reporter construct can be distributed at approximately 10,000 cells per well into 384 well multiwell plates. Compounds from a small molecule compound library can then be added to the wells in half-log dilutions using a three micromolar top concentration. A series of control wells for each cell type receive only buffer and compound solvent. Twenty-four hours after the addition of compound, reporter activity for luciferases can be assayed, for example, by addition of the BrightGlo luminescence reagent (Promega) and the Victor3 plate reader (Perkin Elmer). Readings can be normalized to DMSO only treated cells, and normalized activities can then be used in the IC50 calculations.

| Compound | IC50 |
| --- | --- |
| CN1CCN(c2cncc3[nH]c(-c4n[nH]c5ccc(-c6cncc(NC(=O)CC(C)(C)C)c6)cc45)nc23)CC1 [Compound 257, 3,3-Dimethyl-N-(5-(3-(7-(4-methylpiperazin-1-yl)-3H-imidazo[4,5-c]pyridin-2-yl)-1H-indazol-5-yl)pyridin-3-yl)butanamide] | 95 nM |
| CN1CCN(c2cncc3[nH]c(-c4n[nH]c5ccc(-c6cncc(NC(=O)C7CC7)c6)cc45)nc23)CC1 [Compound 260, N-(5-(3-(7-(4-Methylpiperazin-1-yl)-3H-imidazo[4,5-c]pyridin-2-yl)-1H-indazol-5-yl)pyridin-3-yl)cyclopropanecarboxamide] | 315 nM |
| CN1CCN(c2cncc3[nH]c(-c4n[nH]c5ccc(-c6cncc(NC(=O)C7CCCCC7)c6)cc45)nc23)CC1 [Compound 263, N-(5-(3-(7-(4-Methylpiperazin-1-yl)-3H-imidazo[4,5-c]pyridin-2-yl)-1H-indazol-5-yl)pyridin-3-yl)cyclohexanecarboxamide] | 86 nM |
| O=C(Cc1ccccc1)Nc1cncc(-c2ccc3[nH]nc(-c4nc5ccncc5[nH]4)c3c2)c1 [Compound 274, N-(5-(3-(3H-Imidazo[4,5-c]pyridin-2-yl)-1H-indazol-5-yl)pyridin-3-yl)-2-phenylacetamide] | > 10000 nM |
| O=C(Nc1cncc(-c2ccc3[nH]nc(-c4nc5ccncc5[nH]4)c3c2)c1)c1ccccc1 [Compound 275, N-(5-(3-(3H-Imidazo[4,5-c]pyridin-2-yl)-1H-indazol-5-yl)pyridin-3-yl)benzamide] | 141 nM |
| CC(C)(C)CC(=O)Nc1cncc(-c2ccc3[nH]nc(-c4nc5ccncc5[nH]4)c3c2)c1 [Compound 280, N-(5-(3-(3H-Imidazo[4,5-c]pyridin-2-yl)-1H-indazol-5-yl)pyridin-3-yl)-3,3-dimethylbutanamide] | 21 nM |
| O=C(Nc1cncc(-c2ccc3[nH]nc(-c4nc5ccncc5[nH]4)c3c2)c1)C1CC1 [Compound 283, N-(5-(3-(3H-Imidazo[4,5-c]pyridin-2-yl)-1H-indazol-5-yl)pyridin-3-yl)cyclopropanecarboxamide] | 8 nM |
| CCC(=O)Nc1cncc(-c2ccc3[nH]nc(-c4nc5c(-c6ccsc6)cncc5[nH]4)c3c2)c1 [Compound 289, N-(5-(3-(7-(Thiophen-3-yl)-3H-imidazo[4,5-c]pyridin-2-yl)-1H-indazol-5-yl)pyridin-3-yl)propionamide] | 2 nM |
| Nc1cncc(-c2ccc3[nH]nc(-c4nc5c(-c6ccsc6)cncc5[nH]4)c3c2)c1 [Compound 291, 5-(3-(7-(Thiophen-3-yl)-3H-imidazo[4,5-c]pyridin-2-yl)-1H-indazol-5-yl)pyridin-3-amine] | 2 nM |
| CN(C)c1cncc(-c2ccc3[nH]nc(-c4nc5c(-c6ccsc6)cncc5[nH]4)c3c2)c1 [Compound 295, N,N-Dimethyl-5-(3-(7-(thiophen-3-yl)-3H-imidazo[4,5-c]pyridin-2-yl)-1H-indazol-5-yl)pyridin-3-amine] | 3 nM |
| c1cc(-c2cncc3[nH]c(-c4n[nH]c5ccc(-c6cncc(CN7CCCCC7)c6)cc45)nc23)cs1 [Compound 303, 2-(5-(5-(Piperidin-1-ylmethyl)pyridin-3-yl)-1H-indazol-3-yl)-7-(thiophen-3-yl)-3H-imidazo[4,5-c]pyridine] | 1000 nM |
| CC(C)(C)CC(=O)Nc1cncc(-c2ccc3[nH]nc(-c4nc5c(-c6ccsc6)cncc5[nH]4)c3c2)c1 [Compound 304, 3,3-Dimethyl-N-(5-(3-(7-(thiophen-3-yl)-3H-imidazo[4,5-c]pyridin-2-yl)-1H-indazol-5-yl)pyridin-3-yl)butanamide] | 3 nM |
| c1cncc(-c2ccc3[nH]nc(-c4nc5c(-c6ccoc6)cncc5[nH]4)c3c2)c1 [Compound 315, 7-(Furan-3-yl)-2-(5-(pyridin-3-yl)-1H-indazol-3-yl)-3H-imidazo[4,5-c]pyridine] | 22 nM |
| O=C(Cc1ccccc1)Nc1cncc(-c2ccc3[nH]nc(-c4nc5c(-c6ccoc6)cncc5[nH]4)c3c2)c1 [Compound 321, N-(5-(3-(7-(Furan-3-yl)-3H-imidazo[4,5-c]pyridin-2-yl)-1H-indazol-5-yl)pyridin-3-yl)-2-phenylacetamide] | 33 nM |
| CCCCC(=O)Nc1cncc(-c2ccc3[nH]nc(-c4nc5c(-c6ccoc6)cncc5[nH]4)c3c2)c1 [Compound 329, N-(5-(3-(7-(Furan-3-yl)-3H-imidazo[4,5-c]pyridin-2-yl)-1H-indazol-5-yl)pyridin-3-yl)pentanamide] | 4 nM |
| FC1(F)CCN(Cc2cncc(-c3ccc4[nH]nc(-c5nc6c(-c7cccnc7)cncc6[nH]5)c4c3)c2)C1 [Compound 339, 2-(5-(5-((3,3-Difluoropyrrolidin-1-yl)methyl)pyridin-3-yl)-1H-indazol-3-yl)-7-(pyridin-3-yl)-3H-imidazo[4,5-c]pyridine] | 39 nM |
| FC1(F)CCN(Cc2cncc(-c3ccc4[nH]nc(-c5nc6c(N7CCCCC7)cncc6[nH]5)c4c3)c2)C1 [Compound 342, 2-(5-(5-((3,3-Difluoropyrrolidin-1-yl)methyl)pyridin-3-yl)-1H-indazol-3-yl)-7-(piperidin-1-yl)-3H-imidazo[4,5-c]pyridine] | 20 nM |

Next, values leading:

| IC50 | Compound |
| --- | --- |
| 2 nM | CN1CCN(c2cncc3[nH]c(-c4n[nH]c5ccc(-c6cncc(N)c6)cc45)nc23)CC1 [Compound 247, 5-(3-(7-(4-Methylpiperazin-1-yl)-3H-imidazo[4,5-c]pyridin-2-yl)-1H-indazol-5-yl)pyridin-3-amine] |
| 650 nM | CN1CCN(c2cncc3[nH]c(-c4n[nH]c5ccc(-c6cncc(NC(=O)Cc7ccccc7)c6)cc45)nc23)CC1 [Compound 252, N-(5-(3-(7-(4-Methylpiperazin-1-yl)-3H-imidazo[4,5-c]pyridin-2-yl)-1H-indazol-5-yl)pyridin-3-yl)-2-phenylacetamide] |
| > 10000 nM | Nc1cncc(-c2ccc3[nH]nc(-c4nc5ccncc5[nH]4)c3c2)c1 [Compound 268, 5-(3-(3H-Imidazo[4,5-c]pyridin-2-yl)-1H-indazol-5-yl)pyridin-3-amine] |
| 569 nM | O=C(Nc1cncc(-c2ccc3[nH]nc(-c4nc5ccncc5[nH]4)c3c2)c1)C1CCCCC1 [Compound 286, N-(5-(3-(3H-Imidazo[4,5-c]pyridin-2-yl)-1H-indazol-5-yl)pyridin-3-yl)cyclohexanecarboxamide] |
| 191 nM | Cc1ccncc1-c1ccc2[nH]nc(-c3nc4c(-c5ccsc5)cncc4[nH]3)c2c1 [Compound 293, 2-(5-(4-Methylpyridin-3-yl)-1H-indazol-3-yl)-7-(thiophen-3-yl)-3H-imidazo[4,5-c]pyridine] |
| 69 nM | CN(C)Cc1cncc(-c2ccc3[nH]nc(-c4nc5c(-c6ccsc6)cncc5[nH]4)c3c2)c1 [Compound 301, N,N-Dimethyl-1-(5-(3-(7-(thiophen-3-yl)-3H-imidazo[4,5-c]pyridin-2-yl)-1H-indazol-5-yl)pyridin-3-yl)methanamine] |
| 58 nM | c1cc(-c2cncc3[nH]c(-c4n[nH]c5ccc(-c6cncc(CNCC7CCCC7)c6)cc45)nc23)cs1 [Compound 311, 1-Cyclopentyl-N-((5-(3-(7-(thiophen-3-yl)-3H-imidazo[4,5-c]pyridin-2-yl)-1H-indazol-5-yl)pyridin-3-yl)methyl)methanamine] |
| 5 nM | CC(C)(C)C(=O)Nc1cncc(-c2ccc3[nH]nc(-c4nc5c(-c6ccoc6)cncc5[nH]4)c3c2)c1 [Compound 319, N-(5-(3-(7-(Furan-3-yl)-3H-imidazo[4,5-c]pyridin-2-yl)-1H-indazol-5-yl)pyridin-3-yl)pivalamide] |
| 739 nM | O=C(Nc1cncc(-c2ccc3[nH]nc(-c4nc5c(-c6ccoc6)cncc5[nH]4)c3c2)c1)C1CC1 [Compound 330, N-(5-(3-(7-(Furan-3-yl)-3H-imidazo[4,5-c]pyridin-2-yl)-1H-indazol-5-yl)pyridin-3-yl)cyclopropanecarboxamide] |
| 26 nM | O=C(Nc1cncc(-c2ccc3[nH]nc(-c4nc5c(-c6ccoc6)cncc5[nH]4)c3c2)c1)C1CCCCC1 [Compound 333, N-(5-(3-(7-(Furan-3-yl)-3H-imidazo[4,5-c]pyridin-2-yl)-1H-indazol-5-yl)pyridin-3-yl)cyclohexanecarboxamide] |
| 55 nM | Fc1cccc(-c2cncc3[nH]c(-c4n[nH]c5ccc(-c6cncc(CN7CCC(F)(F)C7)c6)cc45)nc23)c1 [Compound 336, 2-(5-(5-((3,3-Difluoropyrrolidin-1-yl)methyl)pyridin-3-yl)-1H-indazol-3-yl)-7-(3-fluorophenyl)-3H-imidazo[4,5-c]pyridine] |
| 2 nM | FC1(F)CCN(Cc2cncc(-c3ccc4[nH]nc(-c5nc6c(-c7ccsc7)cncc6[nH]5)c4c3)c2)C1 [Compound 346, 2-(5-(5-((3,3-Difluoropyrrolidin-1-yl)methyl)pyridin-3-yl)-1H-indazol-3-yl)-7-(thiophen-3-yl)-3H-imidazo[4,5-c]pyridine] |
| 22 nM | CC(C)CC(=O)Nc1cncc(-c2ccc3[nH]nc(-c4nc5c(-c6cc(F)cc(NCCN(C)C)c6)cncc5[nH]4)c3c2)c1 [Compound 349, N-(5-(3-(7-(3-(2-(Dimethylamino)ethylamino)-5-fluorophenyl)-3H-imidazo[4,5-c]pyridin-2-yl)-1H-indazol-5-yl)pyridin-3-yl)-3-methylbutanamide] |
